Source: publication PMC6792352, “Limited Chemical Structural Diversity Found to Modulate Thyroid Hormone Receptor in the Tox21 Chemical Library” (Environmental Health Perspectives, 2019)
Counter-ions that a name gives are not always drawn.

Assay: in vitro
Details: rat, gh3-tre-luc cells, AC50 (uM) modified / 1000
In the case of `CCOc1ccc(/N=N/c2ccc(N)cc2N)cc1` [Ethoxazene], the CC50 at 24 h is reported as > 50 µM.
In the case of `CC(=O)Nc1cccc(C)c1` [N-Acetyl-m-toluidine], the CC50 at 24 h is reported as > 90 µM.
With `c1ccc(CCCc2ccccn2)cc1` [2-(3-Phenylpropyl)pyridine] the CC50 at 24 h was > 90 µM.
For `O=C1Nc2ccc(Cl)cc2[C@@](C#CC2CC2)(C(F)(F)F)O1` [Efavirenz], the CC50 at 24 h was 31.4 µM.
For `O=c1c(O)c(O)c1=O` [Squaric acid], the CC50 at 24 h was > 90 µM.
For `CC(C)(C)CCCCCC(=O)O` [Neodecanoic acid], the CC50 at 24 h was > 90 µM.
In the case of `CCOC(=O)c1ccc(OCCN2C[C@H](O)[C@@H](O)[C@H](O)[C@H]2CO)cc1` [Emiglitate], the CC50 at 24 h is reported as > 50 µM.
In the case of `O=C1N=C2SCCN2C(=O)C1Cc1ccc(Cl)cc1` (stereo not shown) [Nuclomedone], the CC50 at 24 h is reported as > 50 µM.
In the case of `CCCCC(C#N)(Cn1cncn1)c1ccc(Cl)cc1` (stereo not shown) [Myclobutanil], the CC50 at 24 h is reported as > 90 µM.
Molecule `N#Cc1ccc2c(c1)N(CCCN1CCC(O)CC1)c1ccccc1S2` [Periciazine] has a CC50 at 24 h of 14.3 µM.
For `O=C1CCC(=O)N1CO` [N-Hydroxymethylsuccinimide], the CC50 at 24 h was > 50 µM.
With `CC1=C2C[C@H]3[C@@H](CC=C4C[C@@H](O)CC[C@@]43C)[C@@H]2CC[C@]12O[C@@H]1C[C@H](C)CN[C@H]1[C@H]2C` [Cyclopamine] the CC50 at 24 h was 5.73 µM.
For `O=Cc1ccco1` [Furfural], the CC50 at 24 h was > 90 µM.
In the case of `CC(=O)Nc1ccc(C)c(Cl)c1` [N-(3-Chloro-4-methylphenyl)acetamide], the CC50 at 24 h is reported as > 90 µM.
With `O=C(Nc1ccc(S(=O)(=O)N2CCOCC2)cc1)c1cc(Cl)ccc1NS(=O)(=O)c1ccc(Cl)s1` [Ataciguat] the CC50 at 24 h was 24 µM.
With `CCC(CC)CO` [2-Ethyl-1-butanol] the CC50 at 24 h was > 90 µM.
With `CC(O)CN(C)C` (stereo not shown) [Dimepranol] the CC50 at 24 h was > 50 µM.
With `O=C(OOC(=O)c1ccccc1)c1ccccc1` [Benzoyl peroxide] the CC50 at 24 h was > 50 µM.
In the case of `CCC(C)NC(N)=O` (stereo not shown) [sec-Butylurea], the CC50 at 24 h is reported as > 90 µM.
In the case of `CC(C)(C)NC(=O)[C@H]1CC[C@H]2[C@@H]3CC=C4C=C(C(=O)O)CC[C@]4(C)[C@H]3CC[C@]12C` [Epristeride], the CC50 at 24 h is reported as > 50 µM.
Work on `CCCCCCCCCCCSCC(=O)O` [3-Thiatetradecanoic acid] yielded a CC50 at 24 h of 50.2 µM.
For `CCC1OCC(COc2ccc(Oc3ccccc3)cc2)O1` (stereo not shown) [Diofenolan], the CC50 at 24 h was > 90 µM.
In the case of `CCOC(=O)COc1ccc(C)cc1` [(4-Methylphenoxy) acetic acid ethyl ester], the CC50 at 24 h is reported as > 90 µM.
In the case of `CC(C)C(C)(C)C(C)(C)C(C)(C)S` [tert-Dodecanethiol], the CC50 at 24 h is reported as > 90 µM.
In the case of `CC(C)NCC(O)c1ccc(N)c(C#N)c1` (stereo not shown) [Cimaterol], the CC50 at 24 h is reported as > 50 µM.
With `CCCN1CCCC[C@H]1C(=O)Nc1c(C)cccc1C` [Ropivacaine hydrochloride] the CC50 at 24 h was > 50 µM.
For `N[C@H](CO)C(=O)O` [D-Serine], the CC50 at 24 h was > 50 µM.
In the case of `Nc1cc(-c2ccncc2)c[nH]c1=O` [Amrinone], the CC50 at 24 h is reported as > 90 µM.
For `CN1CCc2cc3c(cc2C1O)OCO3` (stereo not shown) [Hydrastinine hydrochloride], the CC50 at 24 h was > 90 µM.
With `CC(C)(C)C(O)/C=C/c1ccc2c(c1)OCO2` (stereo not shown) [Stiripentol] the CC50 at 24 h was > 50 µM.
In the case of `CCOc1cc(CC(=O)N[C@@H](CC(C)C)c2ccccc2N2CCCCC2)ccc1C(=O)O` [Repaglinide], the CC50 at 24 h is reported as > 20 µM.
For `COc1ccc(C(=O)Nc2ccccc2)cc1[N+](=O)[O-]` [4-Methoxy-3-nitro-N-phenylbenzamide], the CC50 at 24 h was > 90 µM.
In the case of `CO/N=C(/C1=NOCCO1)c1ccccc1Oc1ncnc(Oc2ccccc2Cl)c1F` [Fluoxastrobin], the CC50 at 24 h is reported as 32.7 µM.
For `CC1=NC(C)OC1C` (stereo not shown) [2,4,5-Trimethyl-3-oxazoline], the CC50 at 24 h was > 90 µM.
Work on `Cc1[nH]nc2c1N=C(c1ccccc1Cl)c1cc([N+](=O)[O-])ccc1N2` [PharmaGSID_48505] yielded a CC50 at 24 h of 39.4 µM.
In the case of `N#C/C(=C1/SCC(c2ccccc2Cl)S1)n1ccnc1` (stereo not shown) [Lanoconazole], the CC50 at 24 h is reported as > 50 µM.
For `O=C1[C@H](CC[C@H](O)c2ccc(F)cc2)[C@@H](c2ccc(O)cc2)N1c1ccc(F)cc1` [Ezetimibe], the CC50 at 24 h was > 50 µM.
With `CC(C)=CCC/C(C)=C/CC/C(C)=C/CCC(=O)OC/C=C(\C)CCC=C(C)C` [Gefarnate] the CC50 at 24 h was > 50 µM.
For `O=c1n(CCO)c(=O)n(CCO)c(=O)n1CCO` [Tris(2-hydroxyethyl) isocyanurate], the CC50 at 24 h was > 90 µM.
In the case of `CC(=O)OCC(=O)[C@H]1CC[C@H]2[C@@H]3CC[C@H]4C[C@H](O)CC[C@]4(C)[C@H]3C(=O)C[C@]12C` [Alfadolone acetate], the CC50 at 24 h is reported as > 20 µM.
In the case of `C=CCOC(=O)CCC1CCCCC1` [Prop-2-en-1-yl 3-cyclohexylpropanoate], the CC50 at 24 h is reported as > 90 µM.
In the case of `C=CC(C)(O)CC/C=C(\C)CCC=C(C)C` (stereo not shown) [Nerolidol], the CC50 at 24 h is reported as > 90 µM.
`CC(C)(c1cc(Br)c(OCCO)c(Br)c1)c1cc(Br)c(OCCO)c(Br)c1` gave a CC50 at 24 h of 44.3 µM.
`O=C(O)c1ccc(-n2nc(-c3ccccc3O)nc2-c2ccccc2O)cc1` [Deferasirox] showed a CC50 at 24 h of 41.8 µM.
Molecule `N=C(N)c1ccc(OCCCOc2ccc(C(=N)N)cc2Br)c(Br)c1` [Dibromopropamidine dihydrochloride] has a CC50 at 24 h of 38.5 µM.
With `CCCCOCCOC(=O)CCCCCCCCC(=O)OCCOCCCC` [Bis(2-butoxyethyl) decanedioate] the CC50 at 24 h was > 90 µM.
For `CC1(C)O[C@@H]2C[C@H]3[C@@H]4C[C@H](F)C5=CC(=O)C=C[C@]5(C)[C@H]4[C@@H](O)C[C@]3(C)[C@]2(C(=O)CO)O1` [Flunisolide], the CC50 at 24 h was > 20 µM.
In the case of `CN(C)CCN(C)CCN(C)C` [1,1,4,7,7-Pentamethyldiethylenetriamine], the CC50 at 24 h is reported as > 90 µM.
For `Cc1c(C2(c3cc(Br)c(O)c(Br)c3C)OS(=O)(=O)c3ccccc32)cc(Br)c(O)c1Br` [Bromcresol green], the CC50 at 24 h was 45.4 µM.
With `CCCCCCCC/C=C\CCCCCCCC(=O)N(CCO)CCO` [(9Z)-N,N-Bis(2-hydroxyethyl)octadec-9-enamide] the CC50 at 24 h was 43.9 µM.
For `CC(C)(c1ccccc1)c1ccc(Nc2ccc(C(C)(C)c3ccccc3)cc2)cc1` [4-(2-Phenylpropan-2-yl)-N-[4-(2-phenylpropan-2-yl)phenyl]aniline], the CC50 at 24 h was > 90 µM.
For `N#Cc1cccnc1` [3-Pyridinecarbonitrile], the CC50 at 24 h was > 90 µM.
In the case of `CCCOc1nn(C(=O)NS(=O)(=O)c2ccccc2C(=O)OC)c(=O)n1C` [Propoxycarbazone-sodium], the CC50 at 24 h is reported as > 90 µM.
In the case of `CCNc1nc(NC(C)C)nc(OC)n1` [Atraton], the CC50 at 24 h is reported as > 90 µM.
With `CCOC(=O)OCC/C(SC(=O)OCC)=C(\C)N(C=O)Cc1cnc(C)nc1N` [Dicethiamine hydrochloride] the CC50 at 24 h was > 50 µM.
For `CC1(C2CCC3(C)OC3C2)CO1` (stereo not shown) [Limonene dioxide], the CC50 at 24 h was > 90 µM.
With `CC1=C(O)C(=O)CO1` [4-Hydroxy-5-methyl-3-furanone] the CC50 at 24 h was > 90 µM.
In the case of `CC(Cc1ccc(C(C)(C)C)cc1)CN1C[C@@H](C)O[C@@H](C)C1` (stereo partly drawn) [(2R,6S)-Fenpropimorph], the CC50 at 24 h is reported as > 90 µM.
In the case of `COc1ccccc1Oc1c(NS(=O)(=O)c2ccc(C(C)(C)C)cc2)nc(-c2ncccn2)nc1OCCO` [Bosentan], the CC50 at 24 h is reported as > 50 µM.
In the case of `O=C1c2ccccc2C(=O)c2cc(O)ccc21` [2-Hydroxyanthraquinone], the CC50 at 24 h is reported as > 90 µM.
In the case of `Oc1ccccc1/C=N/Cc1ccccc1` [Norletimol], the CC50 at 24 h is reported as > 50 µM.
In the case of `Clc1cnc(Oc2ccc(Oc3ncc(Cl)cc3Cl)cc2)c(Cl)c1` [1,4-Bis[2-(3,5-dichloropyridyloxy)]benzene], the CC50 at 24 h is reported as > 60 µM.
Molecule `C[C@@H]1CC[C@H]2[C@@H](C)C(=O)O[C@@H]3O[C@@]4(C)CC[C@@H]1[C@]32OO4` [Artemisinin] has a CC50 at 24 h of 4.4 µM.
For `COc1nccnc1NS(=O)(=O)c1ccc(N)cc1` [Sulfalene], the CC50 at 24 h was > 50 µM.
For `C/C=C(\C)C(=O)OCC/C=C\CC` [(3Z)-Hex-3-en-1-yl (2E)-2-methylbut-2-enoate], the CC50 at 24 h was > 90 µM.
With `Cc1ccc(C(C)(C)C)cc1` [4-tert-Butyltoluene] the CC50 at 24 h was > 90 µM.
With `Cc1ccc(-c2nc3ccc(C)cn3c2CC(=O)N(C)C)cc1` [Zolpidem] the CC50 at 24 h was > 50 µM.
In the case of `CO/N=C1\CN(c2nc3c(cc2F)c(=O)c(C(=O)O)cn3C2CC2)CC1CN` (stereo not shown) [Gemifloxacin mesylate], the CC50 at 24 h is reported as > 50 µM.
For `Cc1ccc(O)c([N+](=O)[O-])c1` [4-Methyl-2-nitrophenol], the CC50 at 24 h was > 90 µM.
For `Cc1c(N)cccc1N` [2,6-Toluenediamine], the CC50 at 24 h was > 90 µM.
In the case of `CC(=O)NCCCCCC(=O)O` [Acexamic acid], the CC50 at 24 h is reported as > 50 µM.
In the case of `CC/C=C\CC1=C(C)CCC1=O` [Jasmone], the CC50 at 24 h is reported as > 90 µM.
With `CCCCCC1CCCC(=O)O1` (stereo not shown) [6-Pentyltetrahydro-2H-pyran-2-one] the CC50 at 24 h was > 90 µM.
In the case of `O=C(CCCN1CCC(O)(c2cccc(C(F)(F)F)c2)CC1)c1ccc(F)cc1` [Trifluperidol hydrochloride], the CC50 at 24 h is reported as 24 µM.
For `CCOC(=O)CC(CC(=O)OCC)(OC(C)=O)C(=O)OCC` [Acetyltriethyl citrate], the CC50 at 24 h was > 90 µM.
For `CC(C)(C)C(=O)O` [2,2-Dimethylpropanoic acid], the CC50 at 24 h was > 90 µM.
`Oc1cccc(O)c1O` [Pyrogallol] showed a CC50 at 24 h of 44.6 µM.
For `CC(=O)N(CC(O)CO)c1c(I)c(C(=O)NCC(O)CO)c(I)c(C(=O)NCC(O)CO)c1I` (mixture of isomers) [Iohexol], the CC50 at 24 h was > 50 µM.
With `CCO[Si](CC)(OCC)OCC` [Ethyltriethoxysilane] the CC50 at 24 h was > 90 µM.
In the case of `O=C(/C=C/c1cccc(F)c1)NC1CC1` [Cinflumide], the CC50 at 24 h is reported as > 50 µM.
With `COc1ccc(-c2cc(=O)c3c(O)cc(O[C@@H]4O[C@H](CO[C@@H]5O[C@@H](C)[C@H](O)[C@@H](O)[C@H]5O)[C@@H](O)[C@H](O)[C@H]4O)cc3o2)cc1O` [Diosmin] the CC50 at 24 h was > 50 µM.
In the case of `Nc1ccn(C[C@@H](CO)OCP(=O)(O)O)c(=O)n1` [Cidofovir], the CC50 at 24 h is reported as > 50 µM.
`CN(C)CC/C=C1/c2ccccc2Sc2ccc(Cl)cc21` [Chlorprothixene] showed a CC50 at 24 h of 11 µM.
In the case of `O=C(c1cc2ccccc2o1)N1CCN(Cc2ccccc2)CC1` [Befuraline], the CC50 at 24 h is reported as > 50 µM.
Molecule `O=C(Nc1ccc(Oc2ccc(Cl)cc2)c(Cl)c1)c1cc(I)cc(I)c1O` [Rafoxanide] has a CC50 at 24 h of 36.2 µM.

Same assay, conditions: rat, gh3-tre-luc cells, AC50 (uM) modified / 1000, Tox21_110001=Tox21_111293; viability, 1 nM T3 present, 24 h
With `Clc1ccc(Cl)cc1` [1,4-Dichlorobenzene] the CC50 at 24 h was > 50 µM.

Same assay, conditions: rat, gh3-tre-luc cells, AC50 (uM) modified / 1000, Tox21_110001=Tox21_200399; viability, 1 nM T3 present, 24 h
With `Clc1ccc(Cl)cc1` [1,4-Dichlorobenzene] the CC50 at 24 h was > 90 µM.

Same assay, conditions: rat, gh3-tre-luc cells, AC50 (uM) modified / 1000, Tox21_110001=Tox21_202319; viability, 1 nM T3 present, 24 h
With `N#CC(Br)Br` [Dibromoacetonitrile] the CC50 at 24 h was > 90 µM.
